These results are taken from patent US20200115698A1, “PHARMACEUTICAL COMBINATION FOR TREATMENT OF FABRY DISEASE AND USE THEREOF” (MEIJI PHARMACEUTICAL UNIVERSITY, priority 2017, published 2020).

Assay [1] deals with T1, α-NAGA mutant (SEQ ID NO:8) (Homo sapiens, UniProt P17050, A191L/S188E).
T1 sequence (P17050 with tags, fused parts or gaps S188E/A191L): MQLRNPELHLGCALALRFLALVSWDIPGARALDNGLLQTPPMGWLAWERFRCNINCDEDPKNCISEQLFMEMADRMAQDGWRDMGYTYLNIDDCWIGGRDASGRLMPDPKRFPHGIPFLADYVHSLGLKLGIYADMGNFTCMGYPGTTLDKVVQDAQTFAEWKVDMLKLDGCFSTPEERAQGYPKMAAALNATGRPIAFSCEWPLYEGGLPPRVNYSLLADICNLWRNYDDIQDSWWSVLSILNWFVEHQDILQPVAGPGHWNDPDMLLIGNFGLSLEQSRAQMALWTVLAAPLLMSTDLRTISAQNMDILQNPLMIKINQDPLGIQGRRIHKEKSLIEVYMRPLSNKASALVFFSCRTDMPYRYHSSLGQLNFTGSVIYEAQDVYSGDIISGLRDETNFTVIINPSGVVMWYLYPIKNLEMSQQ
Description: Screening of inhibitor (1): remaining enzyme activity of α-NAGA mutant with 4-methylumbelliferyl α-D-galactopyranoside. As to conditions: 400 μM compound, pH 4.6, 37° C., 30 minutes. Format: biochemical. How it is done:
The screening of inhibitor was carried out as follows: An inhibitor candidate compound dissolved in purified water or DMSO was added to 20 ng of an α-NAGA mutant (SEQ ID NO:8) and 4 mM 4-methylumbelliferylα-D-galactopyranoside dissolved in 0.1 M phosphate-citrate buffer (pH 4.6) such that a concentration of the inhibitor candidate compound became 0.8, 1, or 400 μM, and the mixture thus obtained was caused to react at 37° C. for 30 minutes (the total amount was 50 μl). After the reaction, 950 μl of 0.2 M glycine buffer (pH 10.7) was added to stop the reaction. Then, released 4-methylumbelliferone was measured at an excitation wavelength of 355 nm and at a fluorescence wavelength of 460 nm with use of Wallac 1420 ARVO MX Multilabel Counter. Remaining enzyme activity was calculated based on the assumption that an enzyme activity value obtained in a case where purified water or DMSO is added instead of the inhibitor candidate compound is 100%.

The target of assay [2] is T2, α-NAGA mutant (Homo sapiens, UniProt P17050, A191L/S188E).
T2 sequence (P17050 with tags, fused parts or gaps S188E/A191L): T1 sequence (P17050 with tags, fused parts or gaps S188E/A191L)
Description: Screening of inhibitor (2): inhibition of enzyme activity of α-NAGA mutant. It counts as biochemical. As to conditions: 0.1, 1, or 10 μM compound, pH 4.6, 37° C., 30 minutes; FIG. 1. How it is done: The second screening was carried out as follows: DGJ, GBS, N-C-DGJ, N-DGJ, or N-HE-DGJ dissolved in purified water or DMSO was added to 25 ng of an α-NAGA mutant and 4 mM 4-methylumbelliferylα-D-galactopyranoside dissolved in 0.1 M phosphate-citrate buffer (pH 4.6) such that a concentration of DGJ, GBS, N-C-DGJ, N-DGJ, or N-HE-DGJ became 0.1, 1, or 10 μM, and the mixture thus obtained was caused to react at 37° C. for 30 minutes (the total amount was 50 μl). After the reaction was finished, 950 μl of 0.2 M glycine buffer (pH 10.7) was added to stop the reaction. Then, released 4-methylumbelliferone was measured at an excitation wavelength of 355 nm and at a fluorescence wavelength of 460 nm with use of Wallac 1420 ARVO MX Multilabel Counter. Remaining enzyme activity was calculated based on the assumption that an enzyme activity value obtained in a case where purified water or DMSO is added instead of the inhibitor candidate compound is 100%. FIG. 1 is a view illustrating inhibition of enzyme activity of an α-NAGA mutant by DGJ.

The target in assay [3] is T3, recombinant α-GAL (Homo sapiens, UniProt P06280).
T3 sequence (P06280 32-429): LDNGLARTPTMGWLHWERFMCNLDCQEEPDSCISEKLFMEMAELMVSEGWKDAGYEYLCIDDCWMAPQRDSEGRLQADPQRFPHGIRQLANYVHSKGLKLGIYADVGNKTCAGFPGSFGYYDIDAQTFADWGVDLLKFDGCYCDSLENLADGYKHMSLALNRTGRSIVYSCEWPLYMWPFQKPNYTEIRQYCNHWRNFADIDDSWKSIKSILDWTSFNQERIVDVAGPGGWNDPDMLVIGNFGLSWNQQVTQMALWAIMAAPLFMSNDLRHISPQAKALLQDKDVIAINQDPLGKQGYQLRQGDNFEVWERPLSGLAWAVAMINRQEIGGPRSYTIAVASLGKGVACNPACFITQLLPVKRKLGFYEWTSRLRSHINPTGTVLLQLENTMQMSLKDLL
As to conditions: simultaneous administration to a patient of Fabry disease; cited from earlier work.

Turning to `OCC1NCC(O)C(O)C1O` [DGJ, (2R,3S,4R,5S)-2-(hydroxymethyl)piperdine-3,4,5-triol], in assay [1], the “inhibition effect on α-NAGA mutant (remaining enzyme activity)” value is listed as “the inhibition effect was seen”. Also, in assay [2], the “inhibition of enzyme activity of an α-NAGA mutant (remaining enzyme activity)” value was “had the effect of inhibiting activity of an α-NAGA mutant”. Besides, in assay [3], the “stabilization of administered recombinant α-GAL in the blood” value is listed as “recombinant α-GAL was stabilized”.
